Assay results from article PMC6429275, “Isothiocyanates and Glucosinolates from Sisymbrium officinale (L.) Scop. (“the Singers’ Plant”): Isolation and in Vitro Assays on the Somatosensory and Pain Receptor TRPA1 Channel” (Molecules, 2019).
Several values for one entry are separate records, joined by “and”; a condition that tells them apart may be missing. Equal values may be shown once. Read-outs that look alike come from different tables or passages of the source.

Tests used:
rat TRPA1 [1] = molecular target: T1, rat TRPA1 (Rattus norvegicus, UniProt Q6RI86); experiment: Antagonist/desensitizing behavior against AITC 100 μM in rTRPA1-HEK-293 cells (5 min pre-incubation); format: cell-based
T1 construct: expressed in transfected cells; host or cells: HEK-293 cells, stably transfected
T1 sequence (Q6RI86 whole entry): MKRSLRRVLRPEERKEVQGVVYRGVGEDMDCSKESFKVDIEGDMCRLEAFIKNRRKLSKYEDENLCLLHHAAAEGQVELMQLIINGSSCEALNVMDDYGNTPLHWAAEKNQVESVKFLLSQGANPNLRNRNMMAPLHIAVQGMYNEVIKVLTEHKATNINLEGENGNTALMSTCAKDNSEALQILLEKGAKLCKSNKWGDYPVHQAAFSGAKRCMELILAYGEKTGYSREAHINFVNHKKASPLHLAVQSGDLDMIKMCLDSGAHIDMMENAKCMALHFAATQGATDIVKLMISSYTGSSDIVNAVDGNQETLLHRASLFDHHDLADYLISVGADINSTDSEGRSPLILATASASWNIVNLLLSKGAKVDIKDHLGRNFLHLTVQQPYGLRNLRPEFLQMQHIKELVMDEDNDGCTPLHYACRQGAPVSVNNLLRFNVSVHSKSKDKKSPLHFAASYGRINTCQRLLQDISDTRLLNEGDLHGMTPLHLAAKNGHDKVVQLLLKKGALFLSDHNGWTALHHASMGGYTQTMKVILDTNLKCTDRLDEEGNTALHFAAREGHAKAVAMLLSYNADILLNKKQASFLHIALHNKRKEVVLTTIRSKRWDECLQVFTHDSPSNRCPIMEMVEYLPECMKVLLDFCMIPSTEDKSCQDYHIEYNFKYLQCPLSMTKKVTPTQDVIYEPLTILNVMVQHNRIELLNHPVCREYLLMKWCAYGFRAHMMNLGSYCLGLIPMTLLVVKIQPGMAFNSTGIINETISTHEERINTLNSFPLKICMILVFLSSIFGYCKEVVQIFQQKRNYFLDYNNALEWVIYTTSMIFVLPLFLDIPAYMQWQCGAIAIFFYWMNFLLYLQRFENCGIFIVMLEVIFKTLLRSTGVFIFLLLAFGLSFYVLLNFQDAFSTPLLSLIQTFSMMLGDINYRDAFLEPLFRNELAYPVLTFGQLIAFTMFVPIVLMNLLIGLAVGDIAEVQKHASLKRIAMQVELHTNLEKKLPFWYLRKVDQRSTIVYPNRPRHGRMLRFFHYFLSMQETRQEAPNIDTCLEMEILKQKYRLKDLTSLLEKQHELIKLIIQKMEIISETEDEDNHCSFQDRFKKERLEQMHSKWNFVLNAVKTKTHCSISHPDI
Experimental: (§1) Compound effects on intracellular Ca^2+ concentration ([Ca^2+]i) were determined using the selective intracellular fluorescent probe Fluo-4. Assays of the rat TRPA1-mediated elevation of intracellular Ca^2+ in transfected HEK-293 cells were performed as described. Briefly, human embryonic kidney (HEK-293) cells (stably transfected with rat TRPA1 or not transfected) were cultured in EMEM + 2 mM Glutamine + 1 % non-essential amino acids (NEAA) + 10 % FBS and maintained at 37 °C with 5 % CO2. On the day of the experiment, the cells were loaded with Fluo-4 AM (4 μM) for 1 h at room temperature, rinsed and resuspended in Tyrode’s solution (145 mM NaCl, 2.5 mM KCl, 1.5 mM CaCl2, 1.2 mM MgCl2, 10 mM d-glucose, and 10 mM HEPES, pH 7.4), and finally transferred to a quartz cuvette of a spectrofluorimeter (Perkin-Elmer LS50B, Perkin Elmer Inc, Buckinghamshire, UK); λEX = 488 nm, λEM = 516 nm) equipped with a PTP-1 Fluorescence Peltier System (PerkinElmer Life and Analytical Sciences, Waltham, MA, USA) under continuous stirring. Cell fluorescence before and after the addition of various concentrations of test compounds was measured, normalizing the effects against the response to ionomycin (4 µM). The values of the effect on [Ca^2+]i in not-transfected HEK-293 cells were used as a baseline and subtracted from the values obtained from transfected cells. Agonist efficacy was expressed as a percentage of the effect on [Ca^2+]i observed with 100 μM allylisothiocyanate (AITC). The potency of the compounds (EC50 values) was determined as the concentration required to produce half-maximal increases in [Ca^2+]i. Antagonist/desensitizing behavior as evaluated against TRPA1 agonist AITC 100 μM by adding the compound directly into the quartz cuvette 5 min before the stimulation of cells with the agonist. IC50 is expressed as the concentration exerting a half-maximal inhibition of an agonist effect, taking as 100% the effect on [Ca^2+]i exerted by the agonist alone. Dose–response curves are fitted by a sigmoidal regression with a variable slope. Curve fitting and parameter estimation were performed with a GraphPad Prism (GraphPad Software Inc., San Diego, CA). Three independent experiments were done for each determination; all determinations were performed at least in triplicate. The time-course spectra showing the increase of intracellular Ca^2+ upon application of the compounds are available in Supplementary Material (S10).

rat TRPA1 [2] = molecular target: T1, rat TRPA1; experiment: rat TRPA1-mediated elevation of intracellular Ca2+ (Fluo-4) in transfected HEK-293 cells, agonist mode; format: cell-based; details: for Efficacy (%AITC 100μM): TRPA1, percentage of the effect on [Ca2+]i observed with 100 μM allylisothiocyanate (AITC); for Efficacy (%AITC 100μM) / EC50: rTRPA1-HEK-293 cells; for activity on TRPA1 channel (result in words): in vitro assays on TRPA1; for EC50: Potency EC50, TRPA1, concentration producing half-maximal increase in [Ca2+]i
Experimental: as §1

[3] = tested on: not-transfected HEK cells; experiment: Intracellular Ca2+ elevation in not-transfected HEK-293 cells; format: cell-based, human; details: compound at 100 μM
Experimental: Compound effects on intracellular Ca^2+ concentration ([Ca^2+]i) were determined using the selective intracellular fluorescent probe Fluo-4. Assays of the rat TRPA1-mediated elevation of intracellular Ca^2+ in transfected HEK-293 cells were performed as described. Briefly, human embryonic kidney (HEK-293) cells (stably transfected with rat TRPA1 or not transfected) were cultured in EMEM + 2 mM Glutamine + 1 % non-essential amino acids (NEAA) + 10 % FBS and maintained at 37 °C with 5 % CO2. On the day of the experiment, the cells were loaded with Fluo-4 AM (4 μM) for 1 h at room temperature, rinsed and resuspended in Tyrode’s solution (145 mM NaCl, 2.5 mM KCl, 1.5 mM CaCl2, 1.2 mM MgCl2, 10 mM d-glucose, and 10 mM HEPES, pH 7.4), and finally transferred to a quartz cuvette of a spectrofluorimeter (Perkin-Elmer LS50B, Perkin Elmer Inc, Buckinghamshire, UK); λEX = 488 nm, λEM = 516 nm) equipped with a PTP-1 Fluorescence Peltier System (PerkinElmer Life and Analytical Sciences, Waltham, MA, USA) under continuous stirring. Cell fluorescence before and after the addition of various concentrations of test compounds was measured, normalizing the effects against the response to ionomycin (4 µM). […] Agonist efficacy was expressed as a percentage of the effect on [Ca^2+]i observed with 100 μM allylisothiocyanate (AITC). […]

SMILES	IC50 (rat TRPA1 [1]) [µM]	Efficacy (%AITC 100μM) (rat TRPA1 [2])	activity on TRPA1 channel (result in words) (rat TRPA1 [2])	activity on TRPA1 channel (result in words) (rat TRPA1 [2]; listed as sinigrin)	IC50 (rat TRPA1 [1]; compound added 5 min before stimulation with AITC 100 μM, rTRPA1-HEK-293 cells, read-out: IC50 Inhibition TRPA1 (AITC 100μM)) [µM]	activity on TRPA1 channel (result in words) (rat TRPA1 [2]; listed as glucoputranjivin)	EC50 (rat TRPA1 [2]) [µM]	activity (elevation of internal Ca2+) on not-transfected HEK cells [3]
C=CCC(=NOS(=O)(=O)O)S[C@@H]1O[C@H](CO)[C@@H](O)[C@H](O)[C@H]1O (stereo in doubt) [Compound 5, sinigrin, reference compound]	> 100	<10%	ineffective	inactive				
CC(C)/C(=N/OS(=O)(=O)O)S[C@@H]1O[C@H](CO)[C@@H](O)[C@H](O)[C@H]1O [Compound 1, glucoputranjivin]		<10%	ineffective		> 100	inactive		
CC(C)N=C=S [Compound 2, isopropylisothiocyanate]	10.8 ± 0.4	108.8% and 108.8 ± 1.6%					5.9 ± 0.4	less than 1%
CCC(C)N=C=S (stereo not shown) [Compound 4, 2-butylisothiocyanate]	12.1 ± 0.2	98.0% and 98.0 ± 1.0%					4.9 ± 0.2	less than 1%
